Results as given in patent US9789099B2, “Cosmetic or dermatological preparation for prophylaxis and/or treatment of atopic dermatitis” (Beiersdorf AG, priority 2012, dated 2017).

What was measured:
Format in all cases: in vivo, human
[1] = test system: patients with atopic dermatitis of mild to moderate severity; test: Randomized, blind, controlled two-armed study: dermatologist-assessed clinical severity (local SCORAD, erythema)
Text: Using a randomized, blind (participant), controlled, two-armed study design, it was the aim to evaluate the cortisone saving potential and the non-inferiority of the test sample during an application twice daily lasting for four weeks compared to the once-weekly treatment with 1% hydrocortisone (HC), followed by an application of the test sample for a further three weeks. The study results were based on an assessment, controlled by the dermatologist, of the degree of severity of the clinical size of atopic dermatitis, the colonization of the skin lesions with S. aureus, biotechnological measurement of parameters of the epidermal barrier function, as well as the itching intensity in the test area.

S. aureus = test: Same study: colonization of the skin lesions with S. aureus; settings: topical; same two-arm design
Text: (§1) Using a randomized, blind (participant), controlled, two-armed study design, it was the aim to evaluate the cortisone saving potential and the non-inferiority of the test sample during an application twice daily lasting for four weeks compared to the […] treatment with 1% hydrocortisone (HC), followed by an application of the test sample for a further three weeks. The study results were based on an assessment, controlled by the dermatologist, of the degree of severity of the clinical size of atopic dermatitis, the colonization of the skin lesions with S. aureus, biotechnological measurement of parameters of the epidermal barrier function, as well as the itching intensity in the test area.

[2] = test system: lesional skin of patients with atopic dermatitis; test: Same study: parameters of the epidermal barrier function (TEWL, skin moisture) on lesional skin
Text: as §1

Structure (SMILES): C[C@]12CCC(=O)C=C1CC[C@@H]1[C@@H]2[C@@H](O)C[C@@]2(C)[C@H]1CC[C@]2(O)C(=O)CO [1% hydrocortisone, hydrocortisone]
- erythema ([1]; topical, same two-arm design): significant reduction
- local SCORAD ([1]; topical, test sample twice daily for four weeks vs 1% HC for first week followed by test sample for three weeks): significant reduction
- changes in local SCORAD, erythema, TEWL and S. aureus colonization relative to the other arm ([1]; within the first study week, differences between arms not significant apart from TEWL on day 7): greater changes
- colonization of skin lesions with S. aureus (S. aureus): significant reduction
- skin moisture of lesional skin ([2]; application in the first study week): only slightly
- lesional skin TEWL (transepidermal water loss) ([2]; topical, same two-arm design): significant reduction
